In patent US5968912A, “Methods for immunosuppressing” (Immune Modulation, Inc., priority 1997, dated 1999):

Experiments:
[1] = system: Human T-lymphocyte-mediated cytolysis (cytotoxic CD8+ T-cells); experiment: One-way MLR-generated T-lymphocyte-mediated cytolysis (CTL assay, 51Cr release); type: cell-based
[2] = Single dose range-finding toxicity study in mice; type: in vivo, mouse (Swiss Webster); parameters: key to Clinical observation: Normal / Clinical observation: Vocalization / Clinical observation: Slow breathing / Clinical observation: Hypoactive / Clinical observation: FPSR / Clinical observation: Cool to touch / Clinical observation: Hypoactivity: Observations are recorded as present (x); not observed (--); conditions: mouse, in vivo, single IV administration, mice
Description: (§1) Single dose range-finding study of HE-33 in mice
(§2) Swiss Webster mice (Charles River Laboratories, Hollister, Calif.) were used for the preliminary toxicology study. One mouse per dose level was administered a single intravenous (IV) dose of either 1.5, 15, 75, 100, 150, 200, 300 or 400 mg of HE-33/kg body weight. The dose volume for all mice receiving saline or formulations of HE-3 3 was 10 mL/kg body weight. All doses were administered as a slow-push IV injection in the tail vein. Day 1 of the study for each mouse occurred on the day of administration of the drug or the saline.
(§3) Clinical observations/body weights
(§4) Each mouse was observed closely for clinical signs of toxicity at approximately 10, 30 and 60 minutes and 5 hours after dosing on Day 1, and once daily on Days 2-8. In addition, mortality checks were performed twice daily. Body weights were obtained on each mouse prior to dosing on Day 1. Body weights (Day 1) for the mice used in this study ranged between 27.3 and 32.5 g (Table 8).
(§5) ^a Animals were dosed with saline adjusted to pH 8.55.
(§6) ^b Observations are recorded as present (x) or not observed (--).
(§7) ^c Additional observation was reported in the time interval closest t
(§8) ^d FPSR = Flattened posture with or without closed eyes; animal would
(§9) periodically have a startled response in response to or without a noise

Swiss Webster mice = experiment: Single dose range-finding toxicity study in mice; type: in vivo, mouse (Swiss Webster); parameters: key to Clinical observation: Normal / Clinical observation: Vocalization / Clinical observation: Slow breathing / Clinical observation: Hypoactive / Clinical observation: FPSR / Clinical observation: Cool to touch / Clinical observation: Hypoactivity: Observations are recorded as present (x); not observed (--)
Description: as §1, §2, §3, §4, §5, §6, §7, §8, §9

[3] = animal 3, 75 mg/kg IV, 30 min to day 8
[4] = animal 4, 150 mg/kg IV, 10, 30, 60 min
[5] = animal 4, 150 mg/kg IV, 5 hr to day 8
[6] = animal 5, 300 mg/kg IV, 10 min to 5 hr
[7] = animal 5, 300 mg/kg IV, days 2-8
[8] = animal 11, 300 mg/kg IV, 30, 60 min
[9] = animal 11, 300 mg/kg IV, 10 min and 5 hr to day 8

With `CCCN(CCC)c1ncnc2c1ncn2[C@@H]1O[C@@H]2COP(=O)(O)O[C@H]2[C@H]1O` [HE-33, N^6,N^6 -di-n-Propyl-c-AMP] the “% Specific Lysis” value ([1]; 100 μM, E:T 25:1) was 4%, the inhibition at 100 µM ([1]; Homo sapiens, T-cell, E:T 25:1, read-out: % Inhibition of lysis) was 80% and the No-effect level (NOEL) [2] was 100 mg/kg. The MTD ([2]; read-out: maximum tolerated dose (MTD)) was ≥ 400 mg/kg, the “Clinical signs of toxicity” value (Swiss Webster mice; 150-400 mg/kg IV, between 10 minutes and 5 hrs after dosing on Day 1) was “signs of hypoactivity, flattened posture with or without closed eyes and slow breathing” and the “Clinical observation: Normal” value (Swiss Webster mice; animal 1, 1.5 mg/kg IV, all times 10 min to day 8) was “x”. For the same compound, the “Clinical observation: Normal” value (Swiss Webster mice; animal 2, 15 mg/kg IV, all times 10 min to day 8) was “x”, the “Clinical observation: Normal” value (Swiss Webster mice; animal 3, 75 mg/kg IV, 10 min) was “--” and the “Clinical observation: Vocalization” value (Swiss Webster mice; animal 3, 75 mg/kg IV, 10 min) was “x”. For the same compound, the “Clinical observation: Normal” value (Swiss Webster mice; [3]) was “x”, the “Clinical observation: Vocalization” value (Swiss Webster mice; [3]) was “--” and the “Clinical observation: FPSR” value (Swiss Webster mice; [4]) was “x”. The “Clinical observation: Hypoactive” value (Swiss Webster mice; [4]) was “x”, the “Clinical observation: Normal” value (Swiss Webster mice; [4]) was “--” and the “Clinical observation: Slow breathing” value (Swiss Webster mice; [4]) was “x”. The “Clinical observation: FPSR” value (Swiss Webster mice; [5]) was “--”, the “Clinical observation: Hypoactive” value (Swiss Webster mice; [5]) was “--” and the “Clinical observation: Normal” value (Swiss Webster mice; [5]) was “x”. For the same compound, the “Clinical observation: Slow breathing” value (Swiss Webster mice; [5]) was “--”, the “Clinical observation: FPSR” value (Swiss Webster mice; animal 5, 300 mg/kg IV, 10, 30, 60 min) was “x” and the “Clinical observation: Cool to touch” value (Swiss Webster mice; animal 5, 300 mg/kg IV, 10, 30, 60 min and days 2-8) was “--”. For the same compound, the “Clinical observation: Hypoactivity” value (Swiss Webster mice; [6]) was “x”, the “Clinical observation: Normal” value (Swiss Webster mice; [6]) was “--” and the “Clinical observation: Slow breathing” value (Swiss Webster mice; [6]) was “x”. The “Clinical observation: Cool to touch” value (Swiss Webster mice; animal 5, 300 mg/kg IV, 5 hr) was “x”, the “Clinical observation: FPSR” value (Swiss Webster mice; animal 5, 300 mg/kg IV, 5 hr to day 8) was “--” and the “Clinical observation: Hypoactivity” value (Swiss Webster mice; [7]) was “--”. The “Clinical observation: Normal” value (Swiss Webster mice; [7]) was “x”, the “Clinical observation: Slow breathing” value (Swiss Webster mice; [7]) was “--” and the “Clinical observation: Normal” value (Swiss Webster mice; animal 8, 100 mg/kg IV, all times 10 min to day 8) was “x”. For the same compound, the “Clinical observation: Normal” value (Swiss Webster mice; animal 9, 200 mg/kg IV, all times 10 min to day 8) was “x”, the “Clinical observation: Normal” value (Swiss Webster mice; animal 10, 200 mg/kg IV, all times 10 min to day 8) was “x” and the “Clinical observation: FPSR” value (Swiss Webster mice; [8]) was “x”. The “Clinical observation: Hypoactivity” value (Swiss Webster mice; [8]) was “x”, the “Clinical observation: Normal” value (Swiss Webster mice; [8]) was “--” and the “Clinical observation: Slow breathing” value (Swiss Webster mice; [8]) was “x”. The “Clinical observation: FPSR” value (Swiss Webster mice; [9]) was “--”, the “Clinical observation: Hypoactivity” value (Swiss Webster mice; [9]) was “--” and the “Clinical observation: Normal” value (Swiss Webster mice; [9]) was “x”. For the same compound, the “Clinical observation: Slow breathing” value (Swiss Webster mice; [9]) was “--”, the “Clinical observation: Slow breathing” value (Swiss Webster mice; animal 12, 400 mg/kg IV, 10, 30, 60 min and days 2-8) was “--” and the “Clinical observation: FPSR” value (Swiss Webster mice; animal 12, 400 mg/kg IV, 10 min) was “--”. The “Clinical observation: Normal” value (Swiss Webster mice; animal 12, 400 mg/kg IV, 10 min and days 2-8) was “x”, the “Clinical observation: FPSR” value (Swiss Webster mice; animal 12, 400 mg/kg IV, 30 min) was “x” and the “Clinical observation: Normal” value (Swiss Webster mice; animal 12, 400 mg/kg IV, 30 min, 60 min, 5 hr) was “--”. The “Clinical observation: FPSR” value (Swiss Webster mice; animal 12, 400 mg/kg IV, 60 min, 5 hr) was “x”, the “Clinical observation: Slow breathing” value (Swiss Webster mice; animal 12, 400 mg/kg IV, 5 hr) was “x” and the “Clinical observation: FPSR” value (Swiss Webster mice; animal 12, 400 mg/kg IV, days 2-8) was “--”. The “Condition after Day 1” value (Swiss Webster mice; drug-treated groups, Days 2 to 8) was “normal between Days 2 and 8” and the “Survival for the duration of the study” value (Swiss Webster mice; single IV 1.5-400 mg/kg, 8 days) was “All mice survived for the duration of the study”.
